Reference: patent US6946452B2, “Use of N-acetyl-D-glucosamine in the manufacture of pharmaceutical useful for treating motion sickness” (Third Military Medical University Chinese People's …, priority 2001, dated 2005)

Legend:
Proteus Mirabilis = test: Promoting wave test (bacterial bio-wave growth model); type: cell-based; conditions: final concentration of 0.5% on LB plate, 37° C., compared with control
Text: I. Promoting Wave Test of N-acetyl-D-glucosamine
1. Experimental Materials and Method:
1.1 Samples: Pure Compound of Formula (I)
1.2 Experimental Materials: • Strain: Proteus Mirabilis (which should comply with the following biological reaction characteristics: dynamics (+), urease (+), lactose (−), glucose (+), H2S (−), phenylalanine deaminase (+). • Culture medium: modified LB culture medium (the components of the composition are: trytones of 1%, yeast extract of 0.5%, sodium chloride 1%, glucose of 0.1%, TTC of 0.002% and pH=7.2˜7.4).
2. Experimental Results and Evaluation: • The experiment adopts a bio-wave model which is used to research the promoting wave function of N-acetyl-D-glucosamine. […] II. Toxicological Test of the Compound of Formula (I), including: […]

[1] = in vivo
Text: 1. acute toxicity test: including tests of administrating medicine by oral, Intravenous injection and maximum limit amount for administration;
III. Observation of Curative Efficiency.

[2] = in vivo; remark: listed apart in the source
motion sickness = test: Observation of curative efficiency in patients suffering from motion sickness; type: in vivo; conditions: for Not effective (number of persons) / Effective (number of persons): 20 persons; for Effective (number of persons): 100 km by car and by small steamboat
Experimental: 80 patients suffering from motion sickness were selected and randomly divided into four groups: a group to whom N-acetyl-D-glucosamine was administered in a long term (800 mg of NAG/person/day), a group to whom N-acetyl-D-glucosamine was administered in a short term (6000 mg of NAG/person/day), placebo group (6000 mg of glucose/person/day), a group to whom no medicament was administered. A double blind method was adopted, observing the curative efficiency for traveling 100 kilometers by car (its velocity was 20 kilometers/hour) and traveling 100 kilometers by a small steamboat. Compared with the situation before traveling by car, the following symptoms being relieved or removed will be judged to be effective: dizziness, nausea and vomiting.

[3] = long term group, 800 mg of NAG/person/day
[4] = short term group, 6000 mg of NAG/person/day

In the case of CC(=O)N[C@H]1C(O)O[C@H](CO)[C@@H](O)[C@@H]1O (stereo partly drawn) [N-acetyl-D-glucosamine], the “promoting wave function (concentric ring pattern on LB plate)” value (Proteus Mirabilis) is reported as “many fine waves on each ring emerged”, the “dosage at which acute toxicosis reaction had not appeared” value [1] is reported as “more than 2 g/kg” and the “maximum dosage with no toxicosis reaction” value [2] is reported as 1 g/kg. For the same compound, the “Not effective (number of persons)” value (motion sickness; [3]) was 2, the “Effective (number of persons)” value (motion sickness; [3]) was 18 and the “effectivity of preventing and treating motion sickness” value (motion sickness; p<0.05 vs placebo group and no-administration group) was “more than 90%”. The “Not effective (number of persons)” value (motion sickness; [4]) was 1 and the “Effective (number of persons)” value (motion sickness; [4]) was 19.
